Test results as given in article PMC7083565, “In vitro metabolism, reaction phenotyping, enzyme kinetics, CYP inhibition and induction potential of ataluren” (Pharmacology Research & Perspectives, 2020).

Assays:
[1] = Glucuronidation in pooled human intestinal microsomes; assay type: in vitro ADME; details: intestinal microsomes 1 mg protein/mL, 10 μmol/L, 60 minutes, n = 1
Protocol: Ataluren at 10 μmol/L, was incubated (n = 1) with pooled human intestinal, lung, and kidney microsomes (1 mg protein/mL, preactivated with alamethicin) to evaluate if ataluren‐O‐1β‐acyl glucuronide will be formed in these extrahepatic tissues. Incubation mixtures and procedures were essentially the same as the above. The supernatant fractions were analyzed by LC‐MS/MS to quantify the formation of ataluren‐O‐1β‐acyl glucuronide and the loss of ataluren. Detailed LC‐MS/MS conditions are summarized in LC‐MS/MS Analysis section. […] The ataluren acyl glucuronide formation rate after 60 minutes incubation was calculated using the amount of metabolite formed (pmol) divided by the protein amount in the incubation sample ([…]) and the incubation time (60 minutes).
Quantification of ataluren loss and ataluren‐O‐1β‐acyl glucuronide formation was carried out with an LC‐MS/MS system, which consisted of two Shimadzu LC‐10ADvp pumps, a SPD10‐AVP UV/Vis detector, a Shimadzu SILHTA autosampler, a Shimadzu DGU‐14A degasser, and a Sciex API 4000 QTRAP mass spectrometer equipped with a Turbo Ionspray ionization source that operated in positive ionization mode. […] Ion transitions monitored were at m/z 285 → m/z 123 for ataluren, m/z 461 → m/z 285 for ataluren acyl glucuronide, and m/z 289 → m/z 127 for ataluren‐D4 (internal standard), respectively.

[2] = Plasma protein binding (ultrafiltration), rat; assay type: in vitro ADME; details: male, Sprague Dawley, 50 to 50 000 ng/mL, mean ± SD, n = 3, read-out: percentage protein binding (converted)
Protocol: [^14C]‐Ataluren, at 50, 500, 5000, and 50 000 ng/mL or 0.175, 1.75, 17.5, and 175 µM, in male mouse, rat, dog, monkey, and human plasma, was incubated (n = 3) at 37°C for approximately 15 minutes, transferred into Centrifree® Micropartition Units (30 000 Da molecular weight cutoff, 1 mL capacity; Amicon Inc), and centrifuged at 37°C and 2000 g for approximately 10 minutes so that the amount of the sample filtered was approximately ≤ 20% of the total volume. After centrifugation, the entire ultrafiltrate was weighed and analyzed for radioactivity using liquid scintillation counting. The percent bound = (1‐Cu/Cm)×100, where Cu is the concentration of radioactivity in the ultrafiltrate and Cm is the concentration of radioactivity in the plasma before centrifugation.

CYP2C9 = assay: CYP induction in primary human hepatocytes: CYP2C9; assay type: in vitro ADME; details: male, 48 h
Protocol: (§1) Human hepatocytes isolated from three Caucasian males were transferred to 48‐well collagen‐coated plates at 0.14 × 10^6 cells/well in planting media for attachment. After attachment, planting media was replaced with sandwich media and the cells were incubated until clusters were established. […] The incubation solutions were aspirated and replaced with freshly prepared incubation solutions containing ataluren for an additional 24 hours. […] The incubation solutions were then aspirated and 150 µL of K‐H buffer containing CYP substrates were added. The hepatocytes were incubated for 30 minutes for CYP2C8 (10 µmol/L amodiaquine), 1 hour for CYP3A4 (125 µmol/L testosterone), and 4 hours for CYPs 1A2 (100 µmol/L phenacetin), 2A6 (100 µmol/L coumarin), 2B6 (150 µmol/L bupropion), 2C9 (50 µmol/L tolbutamide), 2C19 (100 µmol/L S‐mephenytoin), and 2E1 (300 µmol/L chlorzoxazone) activity assays. The reactions were stopped by the addition of 0.15 mL of ice‐cold methanol except that coumarin‐treated cells were incubated with β‐glucuronidase and aryl sulfatase for additional 1 hour to free 7‐hydroxycoumarin before the addition of 0.2 mL of ice‐cold methanol. Metabolite formation in incubations with test compounds and control inhibitors was assessed with validated LC‐MS/MS methods for each of the reaction products as described in Table S2. Enzymatic activity for each CYP was calculated using the absolute amount of metabolite formed (pmol) divided by hepatocytes in the incubation (million cells) and the incubation time (minute). The relative fold induction in enzymatic activity was calculated by comparing the rate of metabolite formation for treatment groups to that of the solvent control group (reported as vehicle control%) or positive control group (reported as positive control%).

CYP2B6 = assay: CYP induction in primary human hepatocytes: CYP2B6; assay type: in vitro ADME; details: Bupropion-hydroxylase, 48 hours, n=3
Protocol: as §1

[3] = Glucuronidation in liver microsomes (tissue comparison); assay type: in vitro ADME, human; details: 10 μmol/L, 60 minutes, n = 1

For `O=C(O)c1cccc(-c2noc(-c3ccccc3F)n2)c1` [ataluren, Ataluren], the ataluren loss [1] was 34.4%, the fraction unbound at 15 min [2] was 0.013 and the “Vehicle control %, Mean” value (CYP2C9; 4 µM) was 100%. The “Vehicle control %, Mean” value (CYP2C9; 400 µM) was 146%, the “induction over vehicle control, CYP2C9 activity” value (CYP2C9; hepatocytes, 400 µmol/L) was roughly 1.5 fold and the “Positive control %, Mean” value (CYP2B6; ataluren 4 µM) was 2.81%. For the same compound, the “Vehicle control %, Mean” value (CYP2B6; ataluren 4 µM) was 111%, the “Positive control %, Mean” value (CYP2B6; ataluren 40 µM) was 6.27% and the “Vehicle control %, Mean” value (CYP2B6; ataluren 40 µM) was 123%. For the same compound, the “Positive control %, Mean” value (CYP2B6; ataluren 400 µM) was 19.8%, the “Vehicle control %, Mean” value (CYP2B6; ataluren 400 µM) was 170% and the ataluren loss [3] was 31.4%.
